Results from ChEMBL document CHEMBL1201862, “PubChem BioAssay data set” (2004).
Calls of active or inactive are those of the source. Cut-off read from the data, not from the text of the source, for most assays here: active = IC50 of 5 µM or less and inactive = more.

Assays:
[1] = CellTiter-Glo luminescence survival assay, SW480 colon tumor line, concentration-response curve, half-maximal inhibitory concentration (AID 1117338); format: functional
[2] = RKO cell viability reduction, dose response, CellTiter-Glo luminescence (AID 1117322); format: functional
[3] = cytotoxicity toward HCT116 cells – cell-based, CellTiter-Glo luminescence, IC50, dose response (AID 1117332); format: functional; conditions: HCT-116
[4] = SNU-C1 cell viability reduction, dose response, CellTiter-Glo luminescence (AID 1117323); format: functional, cell-based
[5] = cytotoxicity toward Colo320 cells – cell-based, CellTiter-Glo luminescence, IC50, dose response (AID 1117334); format: functional; conditions: COLO 320
[6] = cytotoxicity toward HT-29 cells – cell-based, CellTiter-Glo luminescence, IC50, dose response (AID 1117330); format: functional
[7] = Reduced DLD-1 viability, concentration-response, CellTiter-Glo luminescence (AID 1117352); format: functional
[8] = HCT116 cell viability decrease, GSK3B pretreatment – CellTiter-Glo, IC50, dose response (AID 1117339); format: functional; conditions: HCT-116
[9] = viability loss in A549 lung cells – cell-based, 24 h, CellTiter-Glo luminescence, cherry-picks, cytotoxicity control, dose response (AID 1053115); format: functional; conditions: A549, 24 h
[10] = inhibitors of non-replicating M. tuberculosis, dose response, luciferase, dry powder (AID 651619); format: functional; conditions: Mycobacterium tuberculosis
[11] = inhibitors of non-replicating M. tuberculosis, dose response, luciferase, dry powder (AID 651620); format: functional; conditions: Mycobacterium tuberculosis
[12] = growth inhibition of replicating M. tuberculosis, dose response, counter-screen, dry powder, IC90 (AID 651617); format: functional; conditions: Mycobacterium tuberculosis
[13] = molecular target: G-protein coupled receptor 183 (Homo sapiens, UniProt P32249); test: SAR confirmation of small molecule antagonists of the EBI2 receptor via a luminescent beta-arrestin assa.; format: functional
G-protein coupled receptor 183, sequence (P32249 whole entry): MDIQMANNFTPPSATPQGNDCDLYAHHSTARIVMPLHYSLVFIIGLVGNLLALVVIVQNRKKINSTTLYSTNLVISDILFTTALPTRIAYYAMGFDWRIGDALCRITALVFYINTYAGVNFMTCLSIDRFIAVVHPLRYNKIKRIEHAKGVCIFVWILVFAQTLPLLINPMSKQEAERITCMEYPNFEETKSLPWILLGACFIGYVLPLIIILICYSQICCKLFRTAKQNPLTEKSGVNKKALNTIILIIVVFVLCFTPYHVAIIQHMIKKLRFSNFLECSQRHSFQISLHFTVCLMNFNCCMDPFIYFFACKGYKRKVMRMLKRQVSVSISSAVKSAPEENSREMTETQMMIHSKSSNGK

[14] = Dd2 parasite growth inhibition in erythrocytes – SYBR Green, dry powder samples, set 4, dose response (AID 1159572); format: functional, cell-based
[15] = Orthopox viral replication plaque formation Measured in Cell-Based and Microorganism Combination System Using Imaging - 2142-05_Inhibitor_Dose_DryPowder_Activity.; format: functional

## CCCCCCCC[N+](C)(C)CCCCCCCC
[1]
  IC50: 3.46 µM (active)
[2]
  IC50: 2.18 µM (active)
[3]
  IC50: 6.24 µM (inactive)
[4]
  IC50: 1.44 µM (active)
[5]
  IC50: 4.66 µM (active)
[6]
  IC50: 4 µM (active)
[7]
  IC50: 3.22 µM (active)
[8]
  IC50: 3.69 µM (active)

## O=C(Nc1ccc2c(c1)[C@@H]1C[C@@H](CC(=O)N3CCc4ccccc4C3)O[C@@H](CO)[C@@H]1O2)Nc1ccccc1F
[9]
  AC50: > 60 µM (inactive)

## Fc1ccc(-c2nnc(SCc3ccccn3)o2)cc1
[10]
  IC90: 4 µM (active)
[11]
  IC90: 4 µM (active)
[12]
  IC90: 62 µM (active)

## Cc1ccccc1/C=C/C(=O)N1CCN(S(=O)(=O)c2ccc(Br)cc2)CC1
[13]
  IC50: 0.187 µM (active)

## COc1ccc2c3c([nH]c2c1)[C@H](CO)N(C(C)=O)CC31CCN(C(=O)c2cccc(F)c2)CC1
[14]
  AC50: 14.1 µM (active)

## CO[C@H]1CN(C)C(=O)c2ccc(NC(=O)c3ccc(F)cc3)cc2OC[C@H](C)N(C(=O)c2ccc(F)cc2)C[C@@H]1C
[15]
  AC50: 5.72 µM (active)
